Residues, ends and D or L forms follow the SMILES beside them.

In the first experiment the target is T1, human noradrenaline transporter (hNET) (Homo sapiens, UniProt P23975).
T1 construct: expressed in transfected cells; host or cells: COS-7 cells (ATCC), transient transfection with metafectene
T1 sequence (P23975 whole entry): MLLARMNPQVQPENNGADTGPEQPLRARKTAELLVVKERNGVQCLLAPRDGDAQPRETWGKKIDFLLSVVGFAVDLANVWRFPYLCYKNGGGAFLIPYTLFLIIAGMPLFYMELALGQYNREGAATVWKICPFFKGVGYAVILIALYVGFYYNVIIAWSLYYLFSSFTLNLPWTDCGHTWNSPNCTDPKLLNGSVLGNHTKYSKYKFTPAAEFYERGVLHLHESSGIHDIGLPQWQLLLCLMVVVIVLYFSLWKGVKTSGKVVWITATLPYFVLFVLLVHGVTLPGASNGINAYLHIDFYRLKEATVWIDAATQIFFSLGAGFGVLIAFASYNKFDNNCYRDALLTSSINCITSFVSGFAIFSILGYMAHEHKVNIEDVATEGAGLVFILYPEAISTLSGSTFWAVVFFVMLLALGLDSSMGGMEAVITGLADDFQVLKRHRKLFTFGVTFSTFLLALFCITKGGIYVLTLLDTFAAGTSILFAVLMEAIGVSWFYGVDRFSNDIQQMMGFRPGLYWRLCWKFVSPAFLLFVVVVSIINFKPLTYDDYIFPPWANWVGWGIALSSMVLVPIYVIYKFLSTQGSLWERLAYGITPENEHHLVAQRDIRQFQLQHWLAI
As to the kind of experiment: biochemical. It is filed as binding.
Settings: not given
Regarding YNGVCCGYWLCHPC [compound 211], the “Av IC50 Displacement of 3H-nisoxetine from hNET” value was −2.00.
YNGVCCGYKLCRPC [compound 207]: the “Av IC50 Displacement of 3H-nisoxetine from hNET” value is reported as −2.00.

The experiment is the same for the next values; noted with them: Av IC50 Displacement of 3H-nisoxetine from hNET.
On to `CC(C)C[C@@H]1NC(=O)[C@H](CCCCN)NC(=O)[C@H](CCCCN)NC(=O)CNC(=O)[C@@H]2CSSC[C@H](NC1=O)C(=O)N[C@@H](Cc1c[nH]cn1)C(=O)N1CCC[C@H]1C(=O)N[C@H](C(N)=O)CSSC[C@H](NC(=O)[C@@H](NC(=O)CNC(=O)[C@H](CC(N)=O)NC(=O)[C@@H](N)Cc1ccc(O)cc1)C(C)C)C(=O)N2` [compound 201] (HELM PEPTIDE1{Y.N.G.V.C.C.G.K.K.L.C.H.P.C.[am]}$PEPTIDE1,PEPTIDE1,5:R3-14:R3|PEPTIDE1,PEPTIDE1,6:R3-11:R3$$$V2.0), for which the IC50 (as a rule, the midpoint of a concentration-inhibition curve) was 437 µM.
For `CC(C)C[C@@H]1NC(=O)[C@H](CCCCN)NC(=O)[C@H](CCC(=O)O)NC(=O)CNC(=O)[C@@H]2CSSC[C@H](NC1=O)C(=O)N[C@@H](Cc1c[nH]cn1)C(=O)N1CCC[C@H]1C(=O)N[C@H](C(N)=O)CSSC[C@H](NC(=O)[C@@H](NC(=O)CNC(=O)[C@H](CC(N)=O)NC(=O)[C@@H](N)Cc1ccc(O)cc1)C(C)C)C(=O)N2` [compound 195] (HELM PEPTIDE1{Y.N.G.V.C.C.G.E.K.L.C.H.P.C.[am]}$PEPTIDE1,PEPTIDE1,5:R3-14:R3|PEPTIDE1,PEPTIDE1,6:R3-11:R3$$$V2.0), the IC50 was 170 µM.
For `CC(C)C[C@@H]1NC(=O)[C@H](Cc2ccc(O)cc2)NC(=O)CNC(=O)[C@@H]2CSSC[C@H](NC(=O)[C@H](CC(C)C)NC1=O)C(=O)N[C@@H](Cc1c[nH]cn1)C(=O)N1CCC[C@H]1C(=O)N[C@H](C(N)=O)CSSC[C@H](NC(=O)[C@@H](NC(=O)CNC(=O)[C@H](CC(N)=O)NC(=O)[C@@H](N)Cc1ccc(O)cc1)C(C)C)C(=O)N2` [compound 174] (HELM PEPTIDE1{Y.N.G.V.C.C.G.Y.L.L.C.H.P.C.[am]}$PEPTIDE1,PEPTIDE1,5:R3-14:R3|PEPTIDE1,PEPTIDE1,6:R3-11:R3$$$V2.0), the IC50 is 17.4 µM.
For the molecule `CC(C)C[C@@H]1NC(=O)[C@H](CCCCN)NC(=O)[C@H](Cc2ccc(O)cc2)NC(=O)CNC(=O)[C@@H]2CSSC[C@H](NC1=O)C(=O)N[C@@H](CCCNC(=N)N)C(=O)N1CCC[C@H]1C(=O)N[C@H](C(N)=O)CSSC[C@H](NC(=O)[C@@H](NC(=O)CNC(=O)[C@H](CC(N)=O)NC(=O)[C@@H](N)Cc1c[nH]c3ccccc13)C(C)C)C(=O)N2` [compound 60], the IC50 is 0.178 µM.
The molecule `CC(C)C[C@@H]1NC(=O)[C@H](CCCCN)NC(=O)[C@H](Cc2ccc(O)cc2)NC(=O)CNC(=O)[C@@H]2CSSC[C@H](NC1=O)C(=O)N[C@@H](Cc1c[nH]c3ccccc13)C(=O)N1CCC[C@H]1C(=O)N[C@H](C(N)=O)CSSC[C@H](NC(=O)[C@@H](NC(=O)CNC(=O)[C@H](CC(N)=O)NC(=O)[C@@H](N)Cc1ccc(O)cc1)C(C)C)C(=O)N2` [compound 91] gave an IC50 of 0.389 µM.
For `CC(C)C[C@@H]1NC(=O)[C@H](CCCCN)NC(=O)[C@H](Cc2ccc(O)cc2)NC(=O)CNC(=O)[C@@H]2CSSC[C@H](NC1=O)C(=O)N[C@@H](CCC(N)=O)C(=O)N1CCC[C@H]1C(=O)N[C@H](C(N)=O)CSSC[C@H](NC(=O)[C@@H](NC(=O)CNC(=O)[C@H](CC(N)=O)NC(=O)[C@@H](N)Cc1ccc(O)cc1)C(C)C)C(=O)N2` [compound 163] (HELM PEPTIDE1{Y.N.G.V.C.C.G.Y.K.L.C.Q.P.C.[am]}$PEPTIDE1,PEPTIDE1,5:R3-14:R3|PEPTIDE1,PEPTIDE1,6:R3-11:R3$$$V2.0), the half-maximal inhibitory concentration (IC50) is 6.92 µM.
With `CC(C)C[C@@H]1NC(=O)[C@H](CCCCN)NC(=O)[C@H](Cc2ccc(O)cc2)NC(=O)CNC(=O)[C@@H]2CSSC[C@H](NC1=O)C(=O)N[C@@H](CCCNC(=N)N)C(=O)N1CCC[C@H]1C(=O)N[C@H](C(N)=O)CSSC[C@H](NC(=O)[C@@H](NC(=O)CNC(=O)[C@H](CC(N)=O)NC(=O)[C@@H](N)Cc1ccc(O)cc1)C(C)C)C(=O)N2` [compound 84], the IC50 was 0.302 µM.
For `CC(C)C[C@@H]1NC(=O)[C@H](CCCCN)NC(=O)[C@H](Cc2ccc(O)cc2)NC(=O)CNC(=O)[C@@H]2CSSC[C@H](NC1=O)C(=O)N[C@@H](Cc1c[nH]cn1)C(=O)N1CCC[C@H]1C(=O)N[C@H](C(N)=O)CSSC[C@H](NC(=O)[C@@H](NC(=O)[C@H](CC(=O)O)NC(=O)[C@@H](N)CC(N)=O)C(C)C)C(=O)N2` [compound 63] (HELM PEPTIDE1{N.D.V.C.C.G.Y.K.L.C.H.P.C.[am]}$PEPTIDE1,PEPTIDE1,4:R3-13:R3|PEPTIDE1,PEPTIDE1,5:R3-10:R3$$$V2.0), the IC50 is 0.191 µM.
`CC(C)C[C@H](NC(=O)[C@H](CC(=O)O)NC(=O)[C@H](CCCCN)NC(=O)[C@@H](N)Cc1c[nH]c2ccccc12)C(=O)N[C@H]1CSSC[C@@H](C(N)=O)NC(=O)[C@@H]2CCCN2C(=O)[C@H](Cc2c[nH]c3ccccc23)NC(=O)[C@@H]2CSSC[C@H](NC1=O)C(=O)NCC(=O)N[C@@H](Cc1ccc(O)cc1)C(=O)N[C@@H](CCCCN)C(=O)N[C@@H](CC(C)C)C(=O)N2` [compound 90] (HELM PEPTIDE1{W.K.D.L.C.C.G.Y.K.L.C.W.P.C.[am]}$PEPTIDE1,PEPTIDE1,5:R3-14:R3|PEPTIDE1,PEPTIDE1,6:R3-11:R3$$$V2.0) had an IC50 of 0.355 µM.
`CC(=O)N[C@@H](CC(N)=O)C(=O)NCC(=O)N[C@H](C(=O)N[C@H]1CSSC[C@@H](C(N)=O)NC(=O)[C@@H]2CCCN2C(=O)[C@H](Cc2c[nH]cn2)NC(=O)[C@@H]2CSSC[C@H](NC1=O)C(=O)NCC(=O)N[C@@H](Cc1ccc(O)cc1)C(=O)N[C@@H](CCCCN)C(=O)N[C@@H](CC(C)C)C(=O)N2)C(C)C` [compound 152] gave an IC50 of 3.63 µM.
`CC(C)[C@H](NC(=O)CNC(=O)[C@@H](N)CC(N)=O)C(=O)N[C@H]1CSSC[C@@H](C(N)=O)NC(=O)[C@@H]2CCCN2C(=O)[C@H](Cc2c[nH]cn2)NC(=O)[C@@H]2CSSC[C@H](NC1=O)C(=O)NCC(=O)N[C@@H](Cc1ccc(O)cc1)C(=O)N[C@@H](CCCCN)C(=O)N[C@@H](CCCCN)C(=O)N2` [compound 196] (HELM PEPTIDE1{N.G.V.C.C.G.Y.K.K.C.H.P.C.[am]}$PEPTIDE1,PEPTIDE1,4:R3-13:R3|PEPTIDE1,PEPTIDE1,5:R3-10:R3$$$V2.0) had a 50% inhibitory concentration (IC50) of 182 µM.
Regarding `CC(C)C[C@@H]1NC(=O)[C@H](CCCCN)NC(=O)[C@H](Cc2ccc(O)cc2)NC(=O)CNC(=O)[C@@H]2CSSC[C@H](NC1=O)C(=O)N[C@@H](Cc1c[nH]cn1)C(=O)N1CCC[C@H]1C(=O)N[C@H](C(N)=O)CSSC[C@H](NC(=O)[C@@H](NC(=O)[C@H](CO)NC(=O)[C@@H](N)CC(N)=O)C(C)C)C(=O)N2` [compound 156] (HELM PEPTIDE1{N.S.V.C.C.G.Y.K.L.C.H.P.C.[am]}$PEPTIDE1,PEPTIDE1,4:R3-13:R3|PEPTIDE1,PEPTIDE1,5:R3-10:R3$$$V2.0), the IC50 was 4.27 µM.
Molecule `CC(C)C[C@@H]1NC(=O)[C@H](CCCCN)NC(=O)[C@H](Cc2ccc(O)cc2)NC(=O)CNC(=O)[C@@H]2CSSC[C@H](NC1=O)C(=O)N[C@@H](Cc1c[nH]cn1)C(=O)N[C@@H](CCCCN)C(=O)N[C@H](C(N)=O)CSSC[C@H](NC(=O)[C@@H](NC(=O)CNC(=O)[C@@H](N)CC(N)=O)C(C)C)C(=O)N2` [compound 117] (HELM PEPTIDE1{N.G.V.C.C.G.Y.K.L.C.H.K.C.[am]}$PEPTIDE1,PEPTIDE1,4:R3-13:R3|PEPTIDE1,PEPTIDE1,5:R3-10:R3$$$V2.0) had an IC50 of 1.15 µM.
`CC(C)C[C@@H]1NC(=O)[C@H](CCCCN)NC(=O)[C@H](Cc2ccc(O)cc2)NC(=O)CNC(=O)[C@@H]2CSSC[C@H](NC1=O)C(=O)N[C@@H](Cc1c[nH]cn1)C(=O)N1CCC[C@H]1C(=O)N[C@H](C(N)=O)CSSC[C@H](NC(=O)[C@@H](NC(=O)CNC(=O)[C@@H](N)CC(=O)O)C(C)C)C(=O)N2` [compound 151] showed an IC50 of 3.55 µM.
Same read-out and setting: with `CC(C)C[C@@H]1NC(=O)CNC(=O)[C@@H]2CSSC[C@H](NC(=O)[C@H](CC(C)C)NC(=O)[C@H](CCCCN)NC1=O)C(=O)N[C@@H](Cc1c[nH]cn1)C(=O)N1CCC[C@H]1C(=O)N[C@H](C(N)=O)CSSC[C@H](NC(=O)[C@@H](NC(=O)CNC(=O)[C@H](CC(N)=O)NC(=O)[C@@H](N)Cc1ccc(O)cc1)C(C)C)C(=O)N2` [compound 171] (HELM PEPTIDE1{Y.N.G.V.C.C.G.L.K.L.C.H.P.C.[am]}$PEPTIDE1,PEPTIDE1,5:R3-14:R3|PEPTIDE1,PEPTIDE1,6:R3-11:R3$$$V2.0) the figure was 10.7 µM; with `CC(C)C[C@@H]1NC(=O)[C@H](CCCCN)NC(=O)[C@H](Cc2ccc(O)cc2)NC(=O)CNC(=O)[C@@H]2CSSC[C@H](NC1=O)C(=O)N[C@@H](Cc1c[nH]cn1)C(=O)N[C@@H](CCC(=O)O)C(=O)N[C@H](C(N)=O)CSSC[C@H](NC(=O)[C@@H](NC(=O)CNC(=O)[C@@H](N)CC(N)=O)C(C)C)C(=O)N2` [compound 159] (HELM PEPTIDE1{N.G.V.C.C.G.Y.K.L.C.H.E.C.[am]}$PEPTIDE1,PEPTIDE1,4:R3-13:R3|PEPTIDE1,PEPTIDE1,5:R3-10:R3$$$V2.0), 4.9 µM; with `CC(C)C[C@H](NC(=O)CNC(=O)[C@@H](N)CC(N)=O)C(=O)N[C@H]1CSSC[C@@H](C(N)=O)NC(=O)[C@@H]2CCCN2C(=O)[C@H](Cc2c[nH]cn2)NC(=O)[C@@H]2CSSC[C@H](NC1=O)C(=O)NCC(=O)N[C@@H](Cc1ccc(O)cc1)C(=O)N[C@@H](CCCCN)C(=O)N[C@@H](CC(C)C)C(=O)N2` [compound 97], 0.501 µM.
The same measure, in the same setting: with `CC(C)C[C@@H]1NC(=O)[C@H](CCCCN)NC(=O)[C@H](Cc2ccc(O)cc2)NC(=O)CNC(=O)[C@@H]2CSSC[C@H](NC1=O)C(=O)N[C@@H](Cc1c[nH]cn1)C(=O)N1CCC[C@H]1C(=O)N[C@H](C(N)=O)CSSC[C@H](NC(=O)[C@@H](NC(=O)[C@H](CCCCN)NC(=O)[C@@H](N)CC(N)=O)C(C)C)C(=O)N2` [compound 122] (HELM PEPTIDE1{N.K.V.C.C.G.Y.K.L.C.H.P.C.[am]}$PEPTIDE1,PEPTIDE1,4:R3-13:R3|PEPTIDE1,PEPTIDE1,5:R3-10:R3$$$V2.0) the figure was 1.32 µM.

For the origin of these results see patent US7507717B2 (Xenome Ltd., priority 2002, dated 2009).
